In brackets after ≈: the same amount, converted by molar mass. Like-named read-outs stand apart in the source and are kept apart here.
Legend:
Format in all cases: in vivo
Meloidogyne incognita = assay: Nematicidal (insecticidal) mortality assay on second instar larvae in well plate; details: for mortality at 12.5 µg/mL: 12.5 μg/ml; for mortality at 12.5 µg/mL / mortality at 25 µg/mL / mortality at 50 µg/mL / mortality at 100 µg/mL / mortality at 200 µg/mL / mortality at 400 µg/mL: 25° C, read-out: Corrected mortality (%); for mortality at 25 µg/mL: 25 μg/ml; for mortality at 50 µg/mL: 50 μg/ml; for mortality at 100 µg/mL: 100 μg/ml; for mortality at 200 µg/mL: 200 μg/ml; for mortality at 400 µg/mL: 400 μg/ml; for LC50: calculated with SPSS 26.0
Description: (§1) 0.5 mg-1.5 mg of pyrrole-2-carboxaldehyde was dissolved in methanol and diluted with sterile distilled water as the test liquid. The dilution concentrations of each liquid medicine were 12.5 μg/ml, 25 μg/ml, 50 μg/ml, 100 μg/ml, 200 μg/ml and 400 μg/ml respectively, and the mass concentration of methanol in each liquid medicine was 5%. Water containing 5% methanol was used as a blank control.
The infected tomato roots with Meloidogyne incognita were washed with water, and the oocysts of Meloidogyne incognita were picked by a dissecting needle and placed in 0.4 M KCl solution. The oocysts were washed and disinfected in a 5 ml centrifuge tube with 4 ml sterile water (three times), 1 ml sterile penicillin-streptomycin double antibody solution and 3 ml 0.1% NaClO solution, and the supernatant was removed in each step by short centrifugation (8000 rpm for 30 seconds). The washed eggs were incubated in 0.4 M ZnCl2 solution for 48 h, and the second instar larvae were collected in a 1.5 ml centrifuge tube with a pipette and enriched by short centrifugation (5000 rpm for 30 seconds) for subsequent use.
200 μl of the above test liquid was added to a 20-well plate with 100-150 live nematodes and placed at 25° C. […] Method for identification of mortality: 1-5 drops of 5% NaCl solution were added to the wells of the treatment plate and observed after 2 minutes; Dead nematodes were stiff and unresponsive to stimulation with a needle, while surviving nematodes were curled or wriggled.
(§2) The whole experiment was repeated three times with the test liquid without samples as the control, and the average value was taken three times to calculate the corrected mortality.
(§3) Mortality %=(number of dead nematodes/(number of dead nematodes+number of surviving nematodes))×100%
(§4) Corrected mortality %=sample mortality−control mortality

Meloidogyne arenaria = assay: Nematicidal (insecticidal) mortality assay in well plate; details: 48 h
Description: as §1
(§5) In addition, root-knot nematodes such as Meloidogyne hapla, Meloidogyne javanica and Meloidogyne arenaria were also prepared for testing.
(§6) 200 μl of the above test liquid was added to a 20-well plate with 100-150 live nematodes and placed at 25° C. Subsequently, the nematodes were examined under an optical microscope at 12 h, 24 h and 48 h, respectively, to calculate the mortality. Method for identification of mortality: 1-5 drops of 5% NaCl solution were added to the wells of the treatment plate and observed after 2 minutes; Dead nematodes were stiff and unresponsive to stimulation with a needle, while surviving nematodes were curled or wriggled.
as §2, §3, §4

Meloidogyne hapla = assay: as above; details: 48 h
Description: as §1, §5, §6, §2, §3, §4

Meloidogyne javanica = assay: as above; details: 48 h
Description: as §1, §5, §6, §2, §3, §4

Question: Which results are given for `O=Cc1ccc[nH]1` [pyrrole-2-carboxaldehyde]?
Answer: mortality at 12.5 µg/mL (Meloidogyne incognita; 12 h): 6.99 ± 1.99%; mortality at 12.5 µg/mL (Meloidogyne incognita; 24 h): 16.6 ± 3.58%; mortality at 12.5 µg/mL (Meloidogyne incognita; 36 h): 24.9 ± 4.7%; mortality at 12.5 µg/mL (Meloidogyne incognita; 48 h): 30.3 ± 4.57%; mortality at 12.5 µg/mL (Meloidogyne incognita; 72 h): 36.1 ± 5.08%; mortality at 25 µg/mL (Meloidogyne incognita; 12 h): 15.8 ± 0.29%; mortality at 25 µg/mL (Meloidogyne incognita; 24 h): 26.5 ± 0.53%; mortality at 25 µg/mL (Meloidogyne incognita; 36 h): 36.3 ± 0.95%; mortality at 25 µg/mL (Meloidogyne incognita; 48 h): 42.1 ± 1.51%; mortality at 25 µg/mL (Meloidogyne incognita; 72 h): 48.5 ± 0.78%; mortality at 50 µg/mL (Meloidogyne incognita; 12 h): 22.4 ± 0.43%; mortality at 50 µg/mL (Meloidogyne incognita; 24 h): 36.63 ± 0.19%; mortality at 50 µg/mL (Meloidogyne incognita; 36 h): 53.4 ± 3.16%; mortality at 50 µg/mL (Meloidogyne incognita; 48 h): 56.6 ± 0.63%; mortality at 50 µg/mL (Meloidogyne incognita; 72 h): 63.2 ± 0.99%; mortality at 100 µg/mL (Meloidogyne incognita; 12 h): 24.3 ± 2.78%; mortality at 100 µg/mL (Meloidogyne incognita; 24 h): 38.7 ± 2%; mortality at 100 µg/mL (Meloidogyne incognita; 36 h): 62 ± 0.85%; mortality at 100 µg/mL (Meloidogyne incognita; 48 h): 83.2 ± 1.29%; mortality at 100 µg/mL (Meloidogyne incognita; 72 h): 88.27 ± 0.56%; mortality at 200 µg/mL (Meloidogyne incognita; 12 h): 34.2 ± 1.74%; mortality at 200 µg/mL (Meloidogyne incognita; 24 h): 64.3 ± 0.9%; mortality at 200 µg/mL (Meloidogyne incognita; 36 h): 79.29 ± 0.7%; mortality at 200 µg/mL (Meloidogyne incognita; 48 h): 93.3 ± 2.24%; mortality at 200 µg/mL (Meloidogyne incognita; 72 h): 94.5 ± 1.89%; mortality at 400 µg/mL (Meloidogyne incognita; 12 h): 47.5 ± 4.35%; mortality at 400 µg/mL (Meloidogyne incognita; 24 h): 77.42 ± 0.58%; mortality at 400 µg/mL (Meloidogyne incognita; 36 h): 93.2 ± 0.82%; mortality at 400 µg/mL (Meloidogyne incognita; 48 h): 98.01 ± 0.2%; mortality at 400 µg/mL (Meloidogyne incognita; 72 h): 99.26 ± 0.34%; LC50 (Meloidogyne incognita; 24 h): 84.7 µg/mL (≈ 891 µM); LC50 (Meloidogyne incognita; 48 h): 30.7 µg/mL (≈ 323 µM); LC50 (Meloidogyne arenaria): 31 µg/mL (≈ 326 µM); LC50 (Meloidogyne hapla): 31.6 µg/mL (≈ 333 µM); LC50 (Meloidogyne javanica): 33.6 µg/mL (≈ 353 µM)

— patent US20230371510A1, “APPLICATION OF PYRROLE-2-CARB[…] CONTROLLING PLANT ROOT-KNOT NEMATODES” (Yunnan University, priority 2022, published 2023)
